# Data: patent US6914045B2, “Glycopeptide antibiotics” (Wyeth Holdings Corporation, priority 2001, dated 2005)
# Key:
# [1] = test system: Enterococcus sp.; assay: in vitro antibacterial evaluation, MIC by broth dilution; type: cell-based; details: broth dilution, 18 hours at 35° C.
# In short: (§1)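 MIC, the lowest antibiotic concentration preventing growth, was read across 64-0.06 μg/mL with 5×10^5 CFU/mL inoculum. Method followed NCCLS M7-A2 broth dilution using Mueller-Hinton II; Gram-positive strains covered recent methicillin-, penicillin- and/or vancomycin-resistant clinical isolates.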
# [2] = test system: Escherichia coli; assay: as above; type: cell-based
# In short: as §1
# [3] = test system: Staphylococcus sp.; assay: as above; type: cell-based; details: broth dilution, 18 hours at 35° C.; for MIC Staphylococcus aureus (GC 1131): strain GC 1131
# In short: as §1
# [4] = test system: Streptococcus sp.; assay: as above; type: cell-based; details: broth dilution, 18 hours at 35° C.
# In short: as §1
# [5] = test system: Staphylococcus aureus-SMITH (GC 4543); assay: acute lethal infection in mice; type: in vivo; details: acute lethal infection, female CD-1 mice, intraperitoneal challenge, intravenous 30 min. after infection, 7 day survival
# Procedure: Methods for in Vivo Antibacterial Evaluation
# The therapeutic effects of glycopeptide antibiotics of Formula I are determined against acute lethal infections with S. aureus (strain Smith), a penicillin resistant strain of S. pneumoniae (strain GC 1894), and a vancomycin resistant strain of E. fecalis (strain GC 6189 and GC 2246). Female mice, CD-1 (Charles River Laboratories), 20+/−2 gm, are challenged by intraperitoneal injection of sufficient bacteria (suspended in /trypticase Soy Broth or hog gastric mucin) to kill non-treated controls within 24-48 hr. Antibacterial agents, contained in 0.2 mL of saline or 5% dextrose solution, are administered intravenously 30 min. after infection. Five mice are treated at each dose level. The 7 day survival ratios from 3 separate tests are pooled for calculation of median effective dose (ED50).
smiles,measurement,setting,value
"CC(c1ccccc1)C1NC(=O)CNC(=O)C(CO)NC(=O)C(C(O)C2CNC(=N)N2C2OC(CO)C(O)C(O)C2O)NC(=O)C(C(O)C2CNC(=N)N2)NC(=O)C(Cc2ccc(OC3OC(CO)C(OC4OC5COC(c6ccc7c(c6)OCO7)OC5C(O)C4O)C(O)C3O)cc2)NC1=O (stereo not drawn) [Example 143, Cyclo[glycyl-β-methylphenylalanyl-O-[4-O-[4,6-O-(1,3-benzodioxol-5-ylmethylene)hexopyranosyl]hexopyranosyl]tyrosyl-3-(2-iminoimidazolidin-4-yl)seryl-3-(3-hexopyranosyl-2-iminoimidazolidin-4-yl)serylseryl]]",MIC Enterococcus avium (GC 4558),[1]; Enterococcus avium (GC 4558),8 to 16 µg/mL
same,MIC Enterococcus faecalis (ATCC 29212),[1]; Enterococcus faecalis (ATCC 29212),8 to 16 µg/mL
same,MIC Enterococcus faecalis (GC 2242),[1]; Enterococcus faecalis (GC 2242),4 to 16 µg/mL
same,MIC Enterococcus faecalis (GC 2691),[1]; Enterococcus faecalis (GC 2691),8 µg/mL
same,MIC Enterococcus faecalis (GC 3059),[1]; Enterococcus faecalis (GC 3059),8 to 16 µg/mL
same,MIC Enterococcus faecalis (GC 4552),[1]; Enterococcus faecalis (GC 4552),8 to 16 µg/mL
same,MIC Enterococcus faecalis (GC 4553),[1]; Enterococcus faecalis (GC 4553),8 to 16 µg/mL
same,MIC Enterococcus faecalis (GC 4554),[1]; Enterococcus faecalis (GC 4554),8 to 16 µg/mL
same,MIC Enterococcus faecalis (GC 6189),[1]; Enterococcus faecalis (GC 6189),4 to 16 µg/mL
same,MIC Enterococcus faecium (GC 2243),[1]; Enterococcus faecium (GC 2243),8 to 16 µg/mL
same,MIC Enterococcus faecium (GC 4556),[1]; Enterococcus faecium (GC 4556),8 to 16 µg/mL
same,MIC Enterococcus faecium (GC 4557),[1]; Enterococcus faecium (GC 4557),2 to 8 µg/mL
same,MIC Enterococcus faecalis (ATCC 29212),[1]; strain ATCC 29212,8 to 16 µg/mL
same,MIC Enterococcus faecalis (GC 2242),[1]; strain GC 2242,4 to 16 µg/mL
same,MIC Enterococcus faecium (GC 2243),[1]; strain GC 2243,8 to 16 µg/mL
same,MIC Enterococcus faecalis (GC 2691),[1]; strain GC 2691,8 µg/mL
same,MIC Enterococcus faecalis (GC 3059),[1]; strain GC 3059,8 to 16 µg/mL
same,MIC Enterococcus faecalis (GC 4552),[1]; strain GC 4552,8 to 16 µg/mL
same,MIC Enterococcus faecalis (GC 4553),[1]; strain GC 4553,8 to 16 µg/mL
same,MIC Enterococcus faecalis (GC 4554),[1]; strain GC 4554,8 to 16 µg/mL
same,MIC Enterococcus faecium (GC 4556),[1]; strain GC 4556,8 to 16 µg/mL
same,MIC Enterococcus faecium (GC 4557),[1]; strain GC 4557,2 to 8 µg/mL
same,MIC Enterococcus avium (GC 4558),[1]; strain GC 4558,8 to 16 µg/mL
same,MIC Enterococcus faecalis (GC 6189),[1]; strain GC 6189,4 to 16 µg/mL
same,MIC Escherichia coli (ATCC 25922),"[2]; strain ATCC 25922, 18 hours at 35° C.",>64 µg/mL
same,MIC Escherichia coli (GC 4559),"[2]; strain GC 4559, 18 hours at 35° C.",64 µg/mL
same,MIC Escherichia coli (GC 4560),"[2]; strain GC 4560, 18 hours at 35° C.",1 to 2 µg/mL
same,MIC Staphylococcus aureus (GC 1131),[3]; inoculum 5×10^5 CFU/mL,2 to 4 µg/mL
same,MIC Staphylococcus aureus (ATCC 29213),[3]; strain ATCC 29213,2 to 4 µg/mL
same,MIC Staphylococcus aureus (GC 1131),[3],2 to 4 µg/mL
same,MIC Staphylococcus aureus (GC 3051),[3]; strain GC 3051,2 to 4 µg/mL
same,MIC Staphylococcus aureus (GC 3053),[3]; strain GC 3053,4 to 8 µg/mL
same,MIC Staphylococcus aureus (GC 4541),[3]; strain GC 4541,2 to 4 µg/mL
same,MIC Staphylococcus aureus (GC 4542),[3]; strain GC 4542,1 to 4 µg/mL
same,MIC Staphylococcus aureus-SMITH (GC 4543),[3]; strain GC 4543,2 to 4 µg/mL
same,MIC Staphylococcus aureus (GC 4544),[3]; strain GC 4544,2 to 8 µg/mL
same,MIC Staphylococcus aureus (GC 4545),[3]; strain GC 4545,2 to 4 µg/mL
same,MIC Staphylococcus haemolyticus (GC 4546),[3]; strain GC 4546,0.5 to 2 µg/mL
same,MIC Coagulase Negative Staphylococcus (GC 4547),[3]; strain GC 4547,1 to 2 µg/mL
same,MIC Coagulase Negative Staphylococcus (GC 4548),[3]; strain GC 4548,1 to 2 µg/mL
same,MIC Coagulase Negative Staphylococcus (GC 4549),[3]; strain GC 4549,1 µg/mL
same,MIC Coagulase Negative Staphylococcus (GC 4551),[3]; strain GC 4551,2 to 4 µg/mL
same,MIC Coagulase Negative Staphylococcus (GC 6257),[3]; strain GC 6257,1 to 2 µg/mL
same,MIC Staphylococcus aureus-SMITH (GC 4543),[3]; strain SMITH GC 4543,2 to 4 µg/mL
same,MIC Streptococcus agalactiae (GC 4564),[4]; Streptococcus agalactiae (GC 4564),0.5 to 1 µg/mL
same,MIC Streptococcus pneumoniae (ATCC 6301),[4]; Streptococcus pneumoniae (ATCC 6301),0.12 to 0.5 µg/mL
same,MIC Streptococcus pneumoniae (GC 1894),[4]; Streptococcus pneumoniae (GC 1894),<0.06 to 0.12 µg/mL
same,MIC Streptococcus pneumoniae (GC 4565),[4]; Streptococcus pneumoniae (GC 4565),0.25 to 0.5 µg/mL
same,MIC Streptococcus pyogenes (GC 4563),[4]; Streptococcus pyogenes (GC 4563),0.25 to 1 µg/mL
same,MIC Streptococcus pneumoniae (ATCC 6301),[4]; strain ATCC 6301,0.12 to 0.5 µg/mL
same,MIC Streptococcus pneumoniae (GC 1894),[4]; strain GC 1894,<0.06 to 0.12 µg/mL
same,MIC Streptococcus pyogenes (GC 4563),[4]; strain GC 4563,0.25 to 1 µg/mL
same,MIC Streptococcus agalactiae (GC 4564),[4]; strain GC 4564,0.5 to 1 µg/mL
same,MIC Streptococcus pneumoniae (GC 4565),[4]; strain GC 4565,0.25 to 0.5 µg/mL
same,"median effective dose (ED50), Staphylococcus aureus-SMITH (GC 4543)",[5],0.28 mg/kg
